Patent US12479829B2, “2-[2-methylazetidin-1-yl]-4-phenyl-6-(trifluoromethyl)-pyrimidine compounds” (Eli Lilly and Company, priority 2020, dated 2025)

Key:
human KHK-A = human KHK-A (Homo sapiens (Human), UniProt P50053); test: KHK Enzyme Activity Assay for Human KHK-A; assay type: biochemical; conditions: fructose 1.25 mM, ATP 150 μM; F1P production by RapidFire MS; read-out: hKHK-A IC50
Description: (§1) KHK Enzyme Activity Assay for Human KHK-C and Human KHK-A
(§2) The intrinsic potency for inhitibiton of KHK C or A activity may be measured using an enzymatic assay which measures the production of F1P. Compounds are prepared in DMSO and tested in a 10-point concentration curve, to create 3-fold serial dilutions of the compounds in a 96-well plate ranging from 20 μM to 1.02 nM. Enzyme is prepared in assay buffer [50 mM 4-(2-hydroxyethyl)piperazine-1-ethanesulfonic acid (HEPES), 10 mM potassium chloride, 100 mM magnesium chloride, 2 mM tris(2-carboxyethyl)phosphine (TCEP), 0.01% n-octyl glucoside] and incubated with compounds at RT for 15 min. The reaction is carried out in 100 μL volumes containing substrate concentrations of fructose (250 μM for KHK-C assay and 1.25 mM for KHK-A assay) and ATP (150 μM for both isoforms); which are further incubated at RT for 20 min. The reaction is then halted by the addition of stop buffer; consisting of 0.2% formic acid and 1 μg/ml ^13C6-fructose-6-phosphate (^13C6-F6P) internal standard. Plates are stored in −20° C. until RapidFire MS analysis.
(§3) RapidFire MS Analysis for Quantitation of F1P
(§4) An Agilent 300 RapidFire automated extraction system (Agilent, Santa Clara, CA) with three HPLC quaternary pumps is coupled to an Agilent 6495 triple quadrupole mass spectrometer (Agilent Technologies, Santa Clara, CA) equipped with an electrospray ionization (ESI) interface source. […]
(§5) Solvent A, used for sample loading and washing, is 6 mM octylamine (Acros Organics 129495000) brought to pH 5.0 using acetic acid. […] Samples are sequentially analyzed by aspirating 10 μL onto the collection loop under vacuum directly from multiwell plates. […]
(§6) The triple quadrupole mass spectrometer is equipped with an ESI source and analytes are monitored using selected reaction monitoring (SRM) in negative mode [M−H]−. F1P is monitored at m/z 259.02/96.9 and ^13C6-fructose-6-phospate is monitored at m/z 264.99/97. The area ratio values for F1P is calculated using ^13C6-fructose-6-phospate as internal standard.

human KHK-C = human KHK-C (Homo sapiens (Human), UniProt P50053); test: KHK Enzyme Activity Assay for Human KHK-C; assay type: biochemical; conditions: fructose 250 μM, ATP 150 μM; F1P production by RapidFire MS; read-out: hKHK-C IC50
Description: as §1, §2, §3, §4, §5, §6

[1] = system: cellular KHK in HepG2 liver cells; test: KHK Cellular Activity Assay (conversion of fructose to F1P in HepG2 liver cells); assay type: cell-based; conditions: Homo sapiens, 8.33 mM D-Fructose-13C6, 3 h at 37° C.
Description: An Agilent 300 RapidFire automated extraction system (Agilent, Santa Clara, CA) with three HPLC quaternary pumps is coupled to an Agilent 6495 triple quadrupole mass spectrometer (Agilent Technologies, Santa Clara, CA) equipped with an electrospray ionization (ESI) interface source. The RapidFire Mass Spec system is equipped with a reusable RapidFire C18 (type C) solid-phase extraction (SPE) cartridge (G9205A).
Solvent A, used for sample loading and washing, is 6 mM octylamine (Acros Organics 129495000) brought to pH 5.0 using acetic acid. Solvent B, used for sample elution, is 20% water in ACN containing 0.1% formic acid. Samples are sequentially analyzed by aspirating 10 μL onto the collection loop under vacuum directly from multiwell plates. The 10 μL of sample is loaded onto the C18 cartridge and washed using solvent A at a flow rate of 1.25 mL/min for 5000 ms. The retained analytes are then eluted to the mass spectrometer using solvent B at a flow rate of 1.25 mL/min for 5000 ms. The system is re-equilibrated using solvent A at a flow rate of 1.25 mL/min for 2000 ms.
as §6
KHK Cellular Activity Assay
Potency can be measured using a cellular assay for the inhibition of conversion of Fructose to F1P by cellular KHK. HepG2 liver cells are plated on 96-well cell culture plates in growth media [Dulbecco's Modified Eagle's medium (DMEM) high glucose, 10% heat-inactivated fetal bovine serum (HI FBS), 1×Penicillin/streptomycin] and allowed to attach overnight in a 37° C. incubator. The growth media is washed and replaced with assay media consisting of Gibco OptiMEM1 Reduced Serum Medium, 0.1% Casein, 8.33 mM D-Fructose-^13C6, and compound concentrations ranging from 100 μM to 0.0051 μM (10-point concentration curve). […]

Pharmacokinetics in Dogs = assay type: in vivo, Beagle Dogs; conditions: for oral bioavailability / total clearance: dog (in the rat [sic]), result in words
Description: (§7) Liquid Chromatograph with Tandem Mass Spectrometry (LC-MS/MS) Method for Pharmacokinetic Assays: Samples are extracted using a protein precipitation by adding 180 μL of MeOH:ACN (1:1, v/v) containing an internal standard to 50 μL of plasma. Samples are then diluted with MeOH:Water (1:1, v/v) to get concentrations within standard curve range. Diluted samples are analyzed by LC-MS/MS using a Sciex API 4000 triple quadrupole mass spectrometer (Applied Biosystems/MDS; Foster City, CA) equipped with a TurboIonSpray interface, and operated in positive ion mode. The analytes are chromatographically separated using a ECHELON C18 4 um 20×2.1 mm column. LC conditions are Water/1 M ammonium bicarbonate, (2000:10, v/v) (Mobile Phase A), and MeOH/1 M ammonium bicarbonate, (2000:10, v/v) (Mobile Phase B).
(§8) The compound is administered by a single oral (PO; 2 mg/kg; volume of 2 mL/kg) or intravenous (IV; 1 mg/kg; volume of 1 mL/kg) dose in vehicle. Blood is collected from each animal at multiple time points between 0 and up to 24 hours post-dosage. The plasma concentrations of Example 2 and Example 3 are determined by a LC-MS/MS method as described above.

[2] = Pharmacokinetics in Sprague Dawley Rats; assay type: in vivo; conditions: rat; for clearance / half-life / bioavailability: Sprague-Dawley, plasma, IV 1 mg/kg; for bioavailability: fasted, PO 3 mg/kg; for oral bioavailability / total clearance: result in words
Description: as §7
Pharmacokinetics in Sprague Dawley Rats
as §8, with “(PO; 3” for “(PO; 2”, “of 10” for “of 2”

[3] = administered for 6 weeks; subjects with non-alcoholic fatty liver disease; cited from earlier work
[4] = beagle, plasma, dog, fed, IV 1 mg/kg

human KHK-A, sequence (P50053 other isoform, or with tags, fused parts or gaps): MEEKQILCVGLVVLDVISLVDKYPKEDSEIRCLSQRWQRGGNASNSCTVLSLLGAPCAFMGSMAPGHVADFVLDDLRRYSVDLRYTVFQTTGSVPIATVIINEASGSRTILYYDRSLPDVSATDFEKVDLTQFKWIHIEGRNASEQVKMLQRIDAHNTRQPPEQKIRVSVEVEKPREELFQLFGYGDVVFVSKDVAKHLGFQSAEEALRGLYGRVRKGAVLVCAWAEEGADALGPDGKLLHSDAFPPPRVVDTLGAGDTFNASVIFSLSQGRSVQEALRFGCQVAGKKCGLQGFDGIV
human KHK-C, sequence (P50053 whole entry): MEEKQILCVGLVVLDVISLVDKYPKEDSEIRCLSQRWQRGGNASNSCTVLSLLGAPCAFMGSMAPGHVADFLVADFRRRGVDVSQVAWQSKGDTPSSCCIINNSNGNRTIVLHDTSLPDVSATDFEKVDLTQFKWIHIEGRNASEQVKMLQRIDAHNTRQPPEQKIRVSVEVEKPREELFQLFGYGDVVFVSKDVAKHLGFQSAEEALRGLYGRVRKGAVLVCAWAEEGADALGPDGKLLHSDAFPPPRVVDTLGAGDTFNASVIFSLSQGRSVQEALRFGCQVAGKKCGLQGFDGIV

SMILES: C[C@H]1CCN1c1nc(-c2ccc(C(=O)NC(CO)(CO)CO)cc2)cc(C(F)(F)F)n1 [Example 3, N-[2-Hydroxy-1,1-bis(hydroxymethyl)ethyl]-4-{2-[(2S)-2-methylazetidin-1-yl]-6-(trifluoromethyl)pyrimidin-4-yl}benzamide]
- IC50 (human KHK-A): 23.4 nM
- IC50 (human KHK-C): 29.7 nM
- IC50 [1]: 82.1 nM
- clearance (Pharmacokinetics in Dogs; [4]): 4.77 mL/min/kg
- half-life (Pharmacokinetics in Dogs; [4]): 5.07 h
- half-life (Pharmacokinetics in Dogs; beagle, plasma, dog, fed, PO 2 mg/kg): 4.52 h
- bioavailability (Pharmacokinetics in Dogs; beagle, plasma, dog, fed, PO 2 mg/kg, IV 1 mg/kg): ~96%
- oral bioavailability (Pharmacokinetics in Dogs): high
- total clearance (Pharmacokinetics in Dogs): low
- clearance [2]: 12.7 mL/min/kg
- half-life [2]: 2.95 h
- bioavailability [2]: 69%
- oral bioavailability [2]: high
- total clearance [2]: low

SMILES: C[C@H]1CCN1c1nc(-c2ccc(C(=O)N3C[C@@H](O)[C@@H](O)C3)cc2)cc(C(F)(F)F)n1 [Example 2, [(3R,4S)-3,4-Dihydroxypyrrolidin-1-yl]-[4-{2-[(2S)-2-methylazetidin-1-yl]-6-(trifluoromethyl)pyrimidin-4-yl}phenyl]methanone]
- IC50 (human KHK-A): 12.7 nM
- IC50 (human KHK-C): 23.1 nM
- IC50 [1]: 186 nM
- clearance (Pharmacokinetics in Dogs; [4]): 2.15 mL/min/kg
- half-life (Pharmacokinetics in Dogs; [4]): 11.3 h
- oral bioavailability (Pharmacokinetics in Dogs): high
- total clearance (Pharmacokinetics in Dogs): low
- clearance [2]: 5.57 mL/min/kg
- half-life [2]: 6.42 h
- bioavailability [2]: 65%
- oral bioavailability [2]: high
- total clearance [2]: low

SMILES: C[C@H]1CCN1c1nc(-c2ccc(C(=O)O)cc2)cc(C(F)(F)F)n1 [Example 1, 4-{2-[(2S)-2-Methylazetidin-1-yl]-6-(trifluoromethyl)pyrimidin-4-yl}benzoic acid]
- IC50 (human KHK-A): 21.5 nM
- IC50 (human KHK-C): 22.6 nM
- IC50 [1]: 911 nM

SMILES: C[C@H]1CCN1c1nc(N2C[C@@H]3[C@@H](CC(=O)O)[C@@H]3C2)cc(C(F)(F)F)n1 [PF-06835919]
- whole liver fat as measured by magnetic resonance imaging-proton density fat fraction [3]: reduces whole liver fat
